Converted amounts (≈) assume the structure as drawn. Like-named read-outs stand apart in the source and are kept apart here.
Legend:
[1] = system: Pseudomonas aeruginosa PA01; test: Serum MIC, broth micro-dilution; format: cell-based; details: Pseudomonas aeruginosa, PA01; 50% v/v mouse serum in Mueller Hinton II cation adjusted Broth, 35° C., 22 hours; Table 4; read-out: P. aeruginosa 01 Serum MIC
Outline: (§1)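 Half mouse serum, half cation-adjusted MH II broth (v/v) served as test medium; bacteria at final OD600 0.0005 were exposed to serial 2-fold compound dilutions for 22 h, 35° C, and the MIC was determined per CLSI M07-A8.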

[2] = system: Acinetobacter baumannii ATCC 17978; test: Serum MIC, broth micro-dilution; format: cell-based; details: Acinetobacter baumannii, ATCC17978, 50% v/v mouse serum in Mueller Hinton II cation adjusted Broth, 35° C., 22 hours
Outline: as §1

[3] = system: Klebsiella pneumoniae ATCC 700603; test: Serum MIC, broth micro-dilution; format: cell-based; details: Klebsiella pneumoniae, ATCC700603; 50% v/v mouse serum in Mueller Hinton II cation adjusted Broth, 35° C., 22 hours; Table 4; read-out: K pneumoniae 700603 Serum MIC
Outline: as §1

[4] = system: Escherichia coli strain ATCC 25922; test: Serum MIC, broth micro-dilution; format: cell-based; details: Escherichia coli, ATCC25922; 50% v/v mouse serum in Mueller Hinton II cation adjusted Broth, 35° C., 22 hours; Table 4; read-out: E. coli 25922 Serum MIC
Outline: as §1

[5] = system: isolated liver mitochondria; test: Mitochondrial oxygen consumption rate (OCR) assay; format: biochemical, Sprague-Dawley rats; details: isolated rat liver mitochondria, state 3 (S3) respiration, glutamate/malate; Table 3
From the text: Male Sprague-Dawley rats (8-10 weeks of age) were euthanized with an overdose of carbon dioxide. The liver was rapidly excised and placed in ice-cold phosphate-buffered saline (PBS) before isolation process. Mitochondria were isolated using the MitoCheck® Mitochondrial Isolation Kit (Cayman Chemical #701010, Ann Arbor, Mich.) according to manufacturer's instructions. In brief, approximately 10-14 grams of liver tissues were finely minced using a pair of scissors, and washed repeatedly with ice-cold PBS, followed by Mito Isolation Buffer. The minced tissues were homogenized with 30 ml Mito Homogenization Buffer in 40 ml dounce homogenizer and a smooth glass grinder. The homogenate was split into two clean 30 ml polycarbonate tubes and centrifuged at 1,000×g, 4° C., for 3 minutes. The supernatant was subjected to further centrifugation at 10,000×g, 4° C., for 10 minutes. The supernatant was discarded and mitochondrial pellet was suspended in Mito Isolation Buffer using a glass stirring rod and stored on ice until use. Protein concentration of mitochondria was determined using a bicinchoninic acid protein assay kit (Thermo Scientific, Waltham, Mass.).
Oxygen consumption was monitored as essentially described by Will et al., “Analysis of mitochondrial function using phosphorescent oxygen-sensitive probes,” Nature Protocols Vol. 1(6) (2006) 2563. Briefly, isolated mitochondria (50 μg mitochondrial proteins/state 3 (S3) of mitochondrial respiration for inhibitor identification, 100 μg/S2 for uncoupler identification) were incubated with compounds in 25 μl of Measurement Buffer (MB: 250 mM sucrose, 15 mM KCl, 1 mM EGTA, 5 mM MgCl2, 30 mM K2HPO4, pH 7.4) including 1% DMSO on ice for 1 hour, then mixed with 25 μl of substrate mixture including an oxygen-sensitive phosphorescent dye (MitoXpress Xtra, Agilent, Santa Clara, Calif.), glutamate (25 mM, G1626, Sigma, St. Louis, Mo.), malate (25 mM, M6413, Sigma), ADP (3.3 mM, A2754, Sigma, only for S3 of mitochondrial respiration), Fatty acid free BSA (0.1%, A0281, Sigma), and a complex II-specific inhibitor TTFA (2 μM, T27006, Sigma for the assessment of complex I-mitochondrial respiration with glutamate/malate) in a black wall/clear bottom 384-well plate. The mixtures were covered with HS mineral oil (Agilent) using the Viaflo 384-channel pipette (Integra, Hudson, N.H.). Oxygen consumption was measured for 30 min at 30° C. using a spectrofluorimeter (FLUOstar Omega, BMG Labtech, Cary, N.C.). In S3, DMSO vehicle control and antimycin A (10 μM) were used to define 0% and 100% inhibition. In S2, DMSO vehicle and FCCP (0.5-1 μM) was used to define 0% and 100% uncoupling, respectively. Area under curve typically in a range of 0-12 min (S3) or 0-24 min (S2) was used for calculations. IC50 or UC50 (uncoupling concentration), a concentration that causes 50% of inhibition or maximal (uncoupling) activation of oxygen consumption, was used to evaluate experimental quality. Data were presented as μM (per 50 μg (S3) or 100 μg (S2) mitochondrial proteins). Compounds with IC50: <100 μM (S3) and/or UC50: <200 μM (S2) were considered as high-risk on mitochondrial toxicity. Compounds with 25-50% changes in inhibition and/or uncoupling were categorized as medium-risk, since compounds with >25% changes are considered as responders.
Toxicity associated with mitochondrial dysfunction has presented a problem for promising potential antibiotics as we as other types of therapeutics. The mitochondrial oxygen consumption rate (OCR) assay is considered a reliable indicator of potential internal organ toxicity issues that may occur with powerful antibiotics. The carboxylate compounds of the invention show unexpected lower toxicity than prior art “glycine nitrile” arylomycin analogs (see, e.g., WO 2018/149419) in the mitochondrial oxygen consumption rate (OCR) assay.

[6] = Table 4, read-out: A. baumanii 17978 Serum MIC
[7] = Table 5, read-out: Acinetobacter baumanii 17978 Serum MIC

| Compound | MIC [1] | MIC [2, 6] | MIC [2, 7] | MIC [3] | MIC [4] | IC50 [5] |
| --- | --- | --- | --- | --- | --- | --- |
| Cc1nc(-c2ccc(C(C)(C)C)cc2)nc(N)c1C(=O)N[C@@H](CCN)C(=O)N(C)[C@@H]1C(=O)N[C@@H](C)C(=O)N[C@H](C(=O)O)Cc2ccc(OC[C@H](O)CN)c(c2)-c2cc1cc(OC[C@H](O)CN)c2O [Example 24, (8S,11S,14S)-18-hydroxy-11-methyl-14-[methyl-[(2S)-4-amino-2-[[4-amino-2-(4-tert-butylphenyl)-6-methyl-pyrimidine-5-carbonyl]amino]-butanoyl]amino]-10,13-dioxo-3,17-bis[(2R)-3-amino-2-hydroxy-propoxy]-9,12-diazatricyclo-[13.3.1.12,6]icosa-1(18),2(20),3,5,15(19), 16-hexaene-8-carboxylic acid] | 16 µM (≈ 15.1 µg/mL) | 16 µM (≈ 15.1 µg/mL) | 16 µM (≈ 15.1 µg/mL) | 0.25 µM (≈ 0.236 µg/mL) | 0.5 µM (≈ 0.472 µg/mL) | > 200 µM |
| Cc1nc(-c2ccc(OCCC(C)(C)C)cc2)ncc1C(=O)N[C@@H](CCN)C(=O)N(C)[C@@H]1C(=O)N[C@@H](C)C(=O)N[C@H](C(=O)O)Cc2ccc(OC[C@H](O)CN)c(c2)-c2cc1cc(OC[C@H](O)CN)c2O [Example 27, (8S,11S,14S)-18-hydroxy-11-methyl-14-[methyl-[(2S)-4-amino-2-[[2-[4-(3,3-dimethylbutoxy)-phenyl]-4-methyl-pyrimidine-5-carbonyl]amino]-butanoyl]amino]-10,13-dioxo-3,17-bis[(2R)-3-amino-2-hydroxy-propoxy]-9,12-diazatricyclo-[13.3.1.12,6]icosa-1(18),2(20),3,5,15(19), 16-hexaene-8-carboxylic acid] | 8 µM (≈ 7.78 µg/mL) | 12 µM (≈ 11.7 µg/mL) | 12 µM (≈ 11.7 µg/mL) | 0.25 µM (≈ 0.243 µg/mL) | 0.25 µM (≈ 0.243 µg/mL) | 20 µM |
| Cc1nc(-c2ccc(C3(C)CC3)cc2)ncc1C(=O)N[C@@H](CCN)C(=O)N(C)[C@@H]1C(=O)N[C@@H](C)C(=O)N[C@H](C(=O)O)Cc2ccc(OC[C@H](O)CN)c(c2)-c2cc1cc(OC[C@H](O)CN)c2O [Example 28, (8S,11S,14S)-18-hydroxy-11-methyl-14-[methyl-[(2S)-4-amino-2-[[4-methyl-2-[4-(1-methylcyclo-propyl)phenyl]-pyrimidine-5-carbonyl]amino]-butanoyl]amino]-10,13-dioxo-3,17-bis[(2R)-3-amino-2-hydroxy-propoxy]-9,12-diazatricyclo-[13.3.1.12,6]icosa-1(18),2(20),3,5,15(19), 16-hexaene-8-carboxylic acid] | 43 µM (≈ 39.8 µg/mL) | 11 µM (≈ 10.2 µg/mL) | 11 µM (≈ 10.2 µg/mL) | 0.17 µM (≈ 0.157 µg/mL) | 0.21 µM (≈ 0.194 µg/mL) | > 250 µM |
| Cc1nc(-c2ccc(C(C)(C)C)cc2)nc(C)c1C(=O)N[C@@H](CN)C(=O)N(C)[C@@H]1C(=O)N[C@@H](C)C(=O)N[C@H](C(=O)O)Cc2ccc(OC[C@H](O)CN)c(c2)-c2cc1cc(OC[C@H](O)CN)c2O [Example 30, (8S,11S,14S)-18-hydroxy-11-methyl-14-[methyl-[(2S)-3-amino-2-[[2-(4-tert-butylphenyl)-4,6-dimethyl-pyrimidine-5-carbonyl]amino]-propanoyl]amino]-10,13-dioxo-3,17-bis[(2R)-3-amino-2-hydroxy-propoxy]-9,12-diazatricyclo-[13.3.1.12,6]icosa-1(18),2(20),3,5,15(19), 16-hexaene-8-carboxylic acid] | 16 µM (≈ 14.8 µg/mL) | 32 µM (≈ 29.7 µg/mL) | 32 µM (≈ 29.7 µg/mL) | 0.75 µM (≈ 0.696 µg/mL) | 1 µM (≈ 0.928 µg/mL) | > 250 µM |
| C[C@@H]1NC(=O)[C@@H](N(C)C(=O)[C@H](CCN)NC(=O)c2c(N)nc(-c3ccc(C(C)(C)C)cc3)nc2C(F)F)c2cc(OC[C@H](O)CN)c(O)c(c2)-c2cc(ccc2OC[C@H](O)CN)C[C@@H](C(=O)O)NC1=O [Example 32, (8S,11S,14S)-18-hydroxy-11-methyl-14-[methyl-[(2S)-4-amino-2-[[2-(4-tert-butylphenyl)-4-amino-6-difluoro-methyl-pyrimidine-5-carbonyl]amino]-butanoyl]amino]-10,13-dioxo-3,17-bis[(2R)-3-amino-2-hydroxy-propoxy]-9,12-diazatricyclo-[13.3.1.12,6]icosa-1(18),2(20),3,5,15(19), 16-hexaene-8-carboxylic acid] | 16 µM (≈ 15.7 µg/mL) | 4 µM (≈ 3.92 µg/mL) | 4 µM (≈ 3.92 µg/mL) | 0.25 µM (≈ 0.245 µg/mL) | 0.25 µM (≈ 0.245 µg/mL) | > 100 µM |
| Cc1nc(-c2ccc(C(F)(F)C(C)C)cc2)nc(N)c1C(=O)N[C@@H](CNS(N)(=O)=O)C(=O)N(C)[C@@H]1C(=O)N[C@@H](C)C(=O)N[C@H](C(=O)O)Cc2ccc(OC[C@H](O)CN)c(c2)-c2cc1cc(OC[C@H](O)CN)c2O [Example 38, (8S,11S,14S)-14-[[(2S)-2-[[4-amino-2-[4-(1,1-difluoro-2-methyl-propyl)-phenyl]-6-methyl-pyrimidine-5-carbonyl]amino]-3-(sulfamoylamino)-propanoyl]-methyl-amino]-3,17-bis[(2R)-3-amino-2-hydroxy-propoxy]-18-hydroxy-11-methyl-10,13-dioxo-9,12-diazatri-cyclo[13.3.1.12,6]icosa-1(18),2(20),3,5,15(19), 16-hexaene-8-carboxylic acid] | 12 µM (≈ 12.5 µg/mL) | 16 µM (≈ 16.7 µg/mL) | 16 µM (≈ 16.7 µg/mL) | 0.5 µM (≈ 0.522 µg/mL) | 0.5 µM (≈ 0.522 µg/mL) | > 100 µM |
| Cc1nc(-c2ccc(C(C)(C)C)cc2O)nc(N)c1C(=O)N[C@@H](CCN)C(=O)N(C)[C@@H]1C(=O)N[C@@H](C)C(=O)N[C@H](C(=O)O)Cc2ccc(OC[C@H](O)CN)c(c2)-c2cc1cc(OC[C@H](O)CN)c2O [Example 43, (8S,11S,14S)-14-[[(2S)-4-amino-2-[[4-amino-2-(4-tert-butyl-2-hydroxy-phenyl)-6-methyl-pyrimidine-5-carbonyl]amino]-butanoyl]-methyl-amino]-3,17-bis[(2R)-3-amino-2-hydroxy-propoxy]-18-hydroxy-11-methyl-10,13-dioxo-9,12-diazatricyclo-[13.3.1.12,6]icosa-1(19),2(20),3,5,15,17-hexaene-8-carboxylic acid] | 8 µM (≈ 7.67 µg/mL) | 8 µM (≈ 7.67 µg/mL) | 8 µM (≈ 7.67 µg/mL) | 0.25 µM (≈ 0.24 µg/mL) | 0.25 µM (≈ 0.24 µg/mL) | > 100 µM |
